This is an account of results in patent publication US20260364190A1, “ANTIBODY DRUG CONJUGATE PLATFORMS” (BEONE MEDICINES I GMBH, priority 2023, published 2026).

SMILES strings stand for the structures.

One assay deals with A375 cells. In words: Payload cellular killing in A375 cancer line. In kind it is cell-based, human. As to conditions: Cell Titer-Glo. As to the method:
A375 (ATCC, CRL-1619). […] The base medium for A375 is DMEM, high glucose, GlutaMAX™ Supplement (Gibco, 10566024). […] The cell line was grown in a humidified 5% CO2 atmosphere at 37 °C, and was regularly tested for the presence of mycoplasma with MycoAlert™ PLUS Mycoplasma Detection Kit (Lonza, LT07-710).
(§1) Payload cellular killing was assessed in A375 and Calu-6 cancer lines. Cells were seeded (A375 (1E3/well) or Calu-6 (2E3/well)) into a 96-well plate (Greiner: 655090), at 100 μl/well and incubated at 37 °C, 5% CO2, overnight. Fresh growth medium was added containing varying concentrations of compounds, 50 μl/well, and incubated at 37 °C, 5% CO2, for 6 days. The cell viability was detected by Cell Titer-Glo (Promega, G7573). 70 μL of CellTiter-Glo® Reagent was added to each well. The plates were allowed to incubate at room temperature for 10 minutes to stabilize the luminescent signal. The plates were analyzed with a microplate reader.

The test system of a further assay is Calu-6 cells. In words: Payload cellular killing in Calu-6 cancer line. It is filed as cell-based. As to conditions: 6 days, Cell Titer-Glo. The procedure: Calu-6 (ATCC, HTB-56). […] The base medium for Calu-6 is Eagle's Minimum Essential Medium (ATCC, 30-2003). […] The cell line was grown in a humidified 5% CO2 atmosphere at 37 °C, and was regularly tested for the presence of mycoplasma with MycoAlert™ PLUS Mycoplasma Detection Kit (Lonza, LT07-710).
as §1
On the technique in general: In ATP-based viability assays light output follows the ATP content of the culture.

Take `CC[C@@]1(O)C(=O)OCc2c1cc1n(c2=O)Cc2c-1nc1cc(F)c(C)c3c1c2C(CN(C)CCO)CC3` (stereo partly drawn) [P11, (9S)-9-ethyl-5-fluoro-9-hydroxy-1-(((2-hydroxyethyl)(methyl)amino)methyl)-4-methyl-1,2,3,9,12,15-hexahydro-10H,13H-benzo[de]pyrano[3′,4′:6,7]indolizino[1,2-b]quinoline-10,13-dione]: the EC50 (usually the concentration giving half of the maximal effect) with A375 cells (Homo sapiens, A-375, 6 days) was determined as 0.8 nM. For the same compound, the Emax (in general, the size of the effect at its maximum, as opposed to the concentration needed) in the assay on Calu-6 cells (Homo sapiens) was determined as 98%.
Turning to `CC[C@@]1(O)C(=O)OCc2c1cc1n(c2=O)Cc2c-1nc1cc(F)c(C)c3c1c2C(CCO)CC3` (stereo partly drawn) [P5, (9S)-9-ethyl-5-fluoro-9-hydroxy-1-(2-hydroxyethyl)-4-methyl-1,2,3,9,12,15-hexahydro-10H,13H-benzo[de]pyrano[3′,4′:6,7]indolizino[1,2-b]quinoline-10,13-dione], the “Emax (%)” value is 100.0% with A375 cells (6 days) and 98.1% in the assay with Calu-6 cells.
In the case of `CC[C@@]1(O)C(=O)OCc2c1cc1n(c2=O)Cc2c-1nc1cc3c(c4c1c2[C@@H](NC(=O)C(C)(F)CO)CC4)OCO3` (stereo partly drawn) [P9, N-((1S,10S)-10-ethyl-10-hydroxy-11,14-dioxo-2,3,10,11,14,16-hexahydro-1H,13H-benzo[de][1,3]dioxolo[4,5-g]pyrano[3′,4′:67]indolizino[1,2-b]quinolin-1-yl)-2-fluoro-3-hydroxy-2-methylpropanamide], in the assay on A375 cells (6 days), a half-maximal effect (EC50) was put at 2.1 nM and the “Emax (%)” value is recorded as 100.0%. For the same compound, in the assay on Calu-6 cells, the EC50 came out at 0.9 nM and the “Emax (%)” value is 98.3%.
Take `CC[C@@]1(O)C(=O)OCc2c1cc1n(c2=O)Cc2c-1nc1cc(F)c(C)c3c1c2C(CCCO)CC3` (stereo partly drawn) [P3, (9S)-9-ethyl-5-fluoro-9-hydroxy-1-(3-hydroxypropyl)-4-methyl-1,2,3,9,12,15-hexahydro-10H,13H-benzo[de]pyrano[3′,4′:6,7]indolizino[1,2-b]quinoline-10,13-dione]: the “Emax (%)” value in the assay with A375 cells (6 days) amounted to 100.0%; in the assay on Calu-6 cells, 99.2%. This compound returned an EC50 in the assay with Calu-6 cells (Homo sapiens) of 0.2 nM.
Regarding `CC[C@@]1(O)C(=O)OCc2c1cc1n(c2=O)Cc2c-1nc1cc3c(c4c1c2[C@@H](NC(=O)OCCO)CC4)OCO3` [P10, 2-hydroxyethyl ((1S,10S)-10-ethyl-10-hydroxy-11,14-dioxo-2,3,10,11,14,16-hexahydro-1H,13H-benzo[de][1,3]dioxolo[4,5-g]pyrano[3′,4′:6,7]indolizino[1,2-b]quinolin-1-yl)carbamate], the EC50 is 2.2 nM in the assay on A375 cells (Homo sapiens, A-375, 6 days) and 0.7 nM in the assay with Calu-6 cells (Homo sapiens). The Emax in the assay on A375 cells (Homo sapiens, A-375, 6 days) is 100%; in the assay with Calu-6 cells (Homo sapiens) it was 97.4%.
